Results: patent US20260284138A1, “METHODS OF MODULATING THE EPITHELIAL-MESENCHYMAL TRANSITION” (RS Oncology, LLC, priority 2023, published 2026)

Experiments:
PRX3 = PRX3 crosslinking by reducing SDS-PAGE and western blot; format: cell-based, human
Description: PRX3 is the primary mitochondrial peroxidase required for H2O2 clearance from the mitochondria induced by metabolic, tumorigenic, and drug treatment inputs. During the metabolism of H2O2, PRX3 forms an intramolecular disulfide bond that orients the second active site for TS-dependent covalent crosslinking, inactivating the protein leading to increased oxidative stress and tumor cell death.
(§1) Erastin potentiates PRX3 crosslinking and ROS generation by TS. FIG. 10A show Western blot from HM cells treated with TS (1 μM), erastin (ER, 2.5 μM) or TS+ER for 24 hours. Samples were run under reducing conditions by SDS-PAGE. FIG. 10B show quantification of PRX3 dimer (TS-crosslink) to PRX3 monomer (unmodified PRX3) from protein western blots as in A (n=2 biological replicates). FIG. 10C show ROS levels in cells treated with TS, ER, or TS+ER for 24 hours (n=2 biological replicates, 3 technical replicates). FIG. 10D show protein western blot of cells cultured in media+/−cystine and treated with TS or ER. PRX3 crosslinking by TS is increased in cells cultured in cystine free (−) media.

HM cells [1] = assay: ROS levels in treated cells; format: cell-based, human; details: ER or TS+ER, 24 hours
Protocol: as §1

HM-TSR cells = assay: Cell viability assay of TS-resistant HM-TSR cells; format: cell-based, human; details: TS+ER 48 hours
Protocol: TS-resistant cells over-express SLC7A11 and are re-sensitized to TS by Erastin (ER). HM cells were dosed with TS by repetitive drug treatment with a short 24-48 hr recovery period. […] Development of a drug-tolerant cell line with tolerance at […] after 8 months. […] The shift in sensitivity of the HM-TSR-TS line to the HM-TSR-TS/ER line.

HM cells [2] = assay: Cell viability assay of HM cells; format: cell-based, human
Protocol: (§2) FIG. 8A show BAP1 protein expression in immortalized mesothelial (LP9), pleural Meso (HM, MI), and peritoneal Meso (Pet-Gar) cell lines. […] FIG. 8B show EC50 values for TS in normal and MM cell lines (*p<0.05, **p<0.01, ***p<0.001, ****p <0.0001, n=4 biological replicates) FIG. 8C show protein western blots of BAP1 and GAPDH in HM scramble control (SCR) and BAP1 siRNA expressing (siBAP1) cells. FIG. 8D show cell viability curves of cells treated with TS 48 hours (n=3).
ZSS>10 indicates synergy between the two compounds.
TS synergy with ER is independent of ferrostatin sensitive MOA.
Knockdown of SLC7A11 potentiates TS activity. […] PRX3 crosslinking is increased in the SLC7A11 KD samples.

[3] = Preclinical animal studies, tolerability; format: in vivo
Description: (§3) RSO-021 is a PRX3 inhibitor that inactivates PRX3 through direct covalent adduction of active site cysteine residues, in turn, inducing oxidative stress to levels incompatible with tumor cell survival.

BAP1 = BAP1 protein expression by western blot; format: cell-based, human; details: TS 4 μM; LP9, HM, MI, Pet-Gar cell lines
Protocol: as §2

mitochondrial PRX3 = assay: Preclinical PRX3 inhibition in transformed cells; format: cell-based
Description: as §3

[4] = system: patient derived explants (PDEs); assay: Gene set enrichment analysis of patient derived explants treated with TS; format: cell-based, human; details: PDEs treated with 10 μM of TS vs untreated
Description: Mesothelioma, a lethal cancer associated with asbestos exposure, lacks effective drug therapy particularly in the relapsed treatment setting. Epithelial-to-mesenchymal transition (EMT) confers an aggressive sarcomatoid phenotype capable of invasion, metastasis, and drug resistance. Pharmacological targeting of EMT could favorably alter the progression and treatment of mesothelioma. Mesothelioma cells rely on buffering of mitochondrial oxidative stress through the expression and activity of mitochondrial peroxiredoxin 3 (PRX3), which is covalently inactivated by the inhibitor RSO-021 (Thiostrepton, TS). To better understand the pharmacodynamics of TS, transcriptomic profiles of drug sensitive and resistant biphasic mesothelioma cell lines were generated. […] Lastly, downregulation of EMT by TS was determined in a cohort of TS treated mesothelioma surgical explants. In summary, PRX3 is a clinically actionable drug target, inhibition of which correlates with EMT modulation.

[5] = system: human biphasic mesothelioma cell lines; assay: RNA-Seq / RT-qPCR gene expression in mesothelioma cells treated with TS; format: cell-based
Protocol: Described herein are methods to evaluate changes in gene expression in malignant mesothelioma cells (H-meso cell line) treated with thiostrepton (HM-TS) for 16 hrs and compare to HM-TSR (TS_tolerant cells) grown in the presence of […] TS for several weeks. Biological triplicates were generated, RNA extracted, and RNA integrity evaluated. Cell lysates and cDNA were evaluated for known gene changes by RT-qPCR prior to library builds. Libraries were generated using the SMARTer® Stranded RNA-Seq Kit HT from Takara, pooled and analyzed on the Illumina HiSeq 1500 using a rapid run dual lane SE sequencing flow cell. Each library yielded an average of […] mapped reads.
Spatial multiregional sampling of adjacent, intra-tumour E (7) vs S (12) regions from 7 patients with bi-phasic mesothelioma was followed by whole exome, transcriptome and 100-plex immunofluorescence analysis (employing cytokeratin-based cell segmentation). Machine learning (random forests) was employed to infer E to S evolutionary trajectories at the genomic, transcriptomic and protein levels. Biphasic human mesothelioma cells were treated with the PRX3 inhibitor RSO-021 (thiostrepton) and gene-expression changes were evaluated by RT-qPCR.
E and S transition requires Mitochondrial peroxiredoxin 3 (PRX3). […] EMT, hypoxia and glycolysis associated transcription were reduced in RSO-021 treated cells (FIG. 4B). […] Further, MAPK13 (p38) expression is increased in TS treated cells (FIG. 4F). p38 negatively regulates TEAD signaling while TEAD promotes EMT and tumorigenesis. […] TGFb is a master regulator of EMT. VGLL4 inhibits TEAD transcription (FIG. 4H). […] Mesothelin (MSLN) is exclusively expressed in epithelioid MM (FIG. 5A). TS resistant cells increase MSLN expression, indicating a switch to an epithelioid phenotype. EMT is a primary driver in the Epithelioid to sarcomatoid transition (FIG. 5B).

[6] = system: cytokine levels in pleural effusion; assay: Phase 1/2 clinical trial: cytokine levels in pleural effusion by ELISA; format: in vivo, human; details: pleural effusion pre- and post-treatment, weekly intrapleural administration
Description: FIGS. 7A-7B show administration of RSO-021 and effect on cytokine levels. […] Prior to each dose patients will have pleural effusion drained to dryness per standard of care. After each administration, the IPC is secured until next RSO-021 dosing time point. […] Absolute values as determined following ELISA are shown from 7 patients enrolled on the trial.
RSO-021 is a PRX3 inhibitor that was investigated in a first-in-human phase ½ clinical trial, recruiting patients with malignant pleural effusion (MPE) arising from mesothelioma or other solid tumors. Mesothelioma cells rely on buffering of mitochondrial oxidative stress through the expression and activity of mitochondrial PRX3, which is covalently inactivated by RSO-021. Inactivation of PRX3 by RSO-021 leads to increased oxidative stress and tumor cell death. RSO-021 may be administered weekly via an intrapleural catheter. Cytokine levels in pleural effusion drainages were measured by ELISA assays. Tumor explants were grown following surgical resection of mesothelioma tumors. RNA sequencing of MM cell lines was conducted. […] RNA sequencing of cells derived from pre-and post-treated MPE aims to identify RSO-021 induced transcriptional changes and their association with clinical activity. […]

Question: For `CCOc1ccccc1-n1c(C(C)N2CCN(C(=O)COc3ccc(Cl)cc3)CC2)nc2ccccc2c1=O` (stereo not shown) [Erastin, erastin], which “effect on PRX3 crosslinking by TS” value (PRX3; HM cells, TS 1 μM, erastin 2.5 μM, 24 hours) is on record?
Answer: potentiates

Question: And the “effect on ROS generation by TS” value (HM cells [1])?
Answer: potentiates

Question: What about the “sensitivity of TS-resistant cells to TS” value (HM-TSR cells) of the same compound?
Answer: re-sensitized

Question: For `CCOC(=O)c1ccc(NC2CCCCC2)c(N)c1` [Fer-1, Ferrostatin], which “effect on PRX3 crosslinking by TS or TS+ER” value (PRX3; cells treated +/- Fer-1, FIG. 11C) is on record?
Answer: does not alter

Question: And the “effect on TS/ER cytotoxic synergy” value (HM cells [2]; 48 hours)?
Answer: does not block

Question: What about the “effect on ER cytotoxicity” value (HM cells [2]; 48 hours, FIG. 11A) of the same compound?
Answer: blocks

Question: With `C=C(NC(=O)C(=C)NC(=O)c1csc(C2=N[C@@H]3c4csc(n4)[C@H]4NC(=O)c5csc(n5)[C@H]([C@](C)(O)[C@@H](C)O)NC(=O)[C@H]5CSC(=N5)/C(=C/C)NC(=O)[C@H]([C@@H](C)O)NC(=O)c5csc(n5)[C@]3(CC2)NC(=O)[C@H](C)NC(=O)C(=C)NC(=O)[C@H](C)NC(=O)[C@H]([C@@H](C)CC)N[C@@H]2C=Cc3c([C@H](C)O)cc(nc3[C@H]2O)C(=O)O[C@@H]4C)n1)C(N)=O` [TS, Thiostrepton] as the compound, how does the tolerability [3] read?
Answer: well-tolerated

Question: What about the BAP1 protein expression (BAP1) of the same compound?
Answer: does not alter

Question: What about the “selectivity of mitochondrial PRX3 inhibition” value (mitochondrial PRX3) of the same compound?
Answer: selectively inhibits

Question: What about the PRX3 crosslinking (PRX3; SLC7A11 KD samples, FIG. 12C) of the same compound?
Answer: increased

Question: What about the “PRX3 crosslinking by TS” value (PRX3; cells cultured in cystine free (−) media) of the same compound?
Answer: increased

Question: And the “modified PRX3 (PRX3-TS)” value (PRX3; reducing SDS-PAGE and western blotting)?
Answer: dose-dependent irreversible increase

Question: And the “epithelial mesenchymal transition genes” value [4]?
Answer: downregulated

Question: What about the “EMT, hypoxia and glycolysis associated transcription” value ([5]; GSEA, treated vs control cells, FIG. 4B) of the same compound?
Answer: reduced

Question: What about the VISTA expression ([5]; RSO-021 treated cells, FIG. 4D) of the same compound?
Answer: upregulated

Question: What about the “MAPK13 (p38) expression” value ([5]; TS treated cells, FIG. 4F) of the same compound?
Answer: increased

Question: And the “TGFb1 and TGFb2 expression” value ([5]; TS treated cells, FIG. 4G)?
Answer: downregulated

Question: What about the “Additional TEAD targets EGFR, DKK1, WNT5B, SLC7A5, and WNT5A” value ([5]; TS treatment, FIG. 4I) of the same compound?
Answer: downregulated

Question: What about the “TEAD target genes, TGF-β and EMT associated genes including CDH2” value ([5]; biphasic mesothelioma cells, FIG. 4A) of the same compound?
Answer: downregulated

Question: And the “mesothelin (MSLN) expression” value ([5]; biphasic mesothelioma cells, FIG. 4A/4D)?
Answer: upregulated

Question: And the “ROS response and apoptosis signaling” value ([5]; differential transcriptomic analysis)?
Answer: upregulation

Question: What about the “expression of mesothelioma specific EMT genes Col5A, mesothelin, and VISTA” value ([5]; transcriptomic profiles) of the same compound?
Answer: altered expression

Question: What about the “TS activity in relation to BAP1 expression” value (HM cells [2]; BAP1 siRNA vs scramble, TS 48 hours) of the same compound?
Answer: independent of BAP1 expression

Question: What about the “TS activity on knockdown of SLC7A11” value (HM cells [2]; HM cells, SLC7A11 siRNA) of the same compound?
Answer: potentiates

Question: What about the “cytokine levels including Resistin, IL-8 and IL-6” value [6] of the same compound?
Answer: significant changes
